This note sets out measurements from patent publication US20050222127A1, “Use of Rho kinase inhibitors in the treatment of hearing loss, tinnitus and improving body balance” (Alcon, Inc., priority 2004, published 2005).

T1 sequence (O75116 whole entry, species assumed): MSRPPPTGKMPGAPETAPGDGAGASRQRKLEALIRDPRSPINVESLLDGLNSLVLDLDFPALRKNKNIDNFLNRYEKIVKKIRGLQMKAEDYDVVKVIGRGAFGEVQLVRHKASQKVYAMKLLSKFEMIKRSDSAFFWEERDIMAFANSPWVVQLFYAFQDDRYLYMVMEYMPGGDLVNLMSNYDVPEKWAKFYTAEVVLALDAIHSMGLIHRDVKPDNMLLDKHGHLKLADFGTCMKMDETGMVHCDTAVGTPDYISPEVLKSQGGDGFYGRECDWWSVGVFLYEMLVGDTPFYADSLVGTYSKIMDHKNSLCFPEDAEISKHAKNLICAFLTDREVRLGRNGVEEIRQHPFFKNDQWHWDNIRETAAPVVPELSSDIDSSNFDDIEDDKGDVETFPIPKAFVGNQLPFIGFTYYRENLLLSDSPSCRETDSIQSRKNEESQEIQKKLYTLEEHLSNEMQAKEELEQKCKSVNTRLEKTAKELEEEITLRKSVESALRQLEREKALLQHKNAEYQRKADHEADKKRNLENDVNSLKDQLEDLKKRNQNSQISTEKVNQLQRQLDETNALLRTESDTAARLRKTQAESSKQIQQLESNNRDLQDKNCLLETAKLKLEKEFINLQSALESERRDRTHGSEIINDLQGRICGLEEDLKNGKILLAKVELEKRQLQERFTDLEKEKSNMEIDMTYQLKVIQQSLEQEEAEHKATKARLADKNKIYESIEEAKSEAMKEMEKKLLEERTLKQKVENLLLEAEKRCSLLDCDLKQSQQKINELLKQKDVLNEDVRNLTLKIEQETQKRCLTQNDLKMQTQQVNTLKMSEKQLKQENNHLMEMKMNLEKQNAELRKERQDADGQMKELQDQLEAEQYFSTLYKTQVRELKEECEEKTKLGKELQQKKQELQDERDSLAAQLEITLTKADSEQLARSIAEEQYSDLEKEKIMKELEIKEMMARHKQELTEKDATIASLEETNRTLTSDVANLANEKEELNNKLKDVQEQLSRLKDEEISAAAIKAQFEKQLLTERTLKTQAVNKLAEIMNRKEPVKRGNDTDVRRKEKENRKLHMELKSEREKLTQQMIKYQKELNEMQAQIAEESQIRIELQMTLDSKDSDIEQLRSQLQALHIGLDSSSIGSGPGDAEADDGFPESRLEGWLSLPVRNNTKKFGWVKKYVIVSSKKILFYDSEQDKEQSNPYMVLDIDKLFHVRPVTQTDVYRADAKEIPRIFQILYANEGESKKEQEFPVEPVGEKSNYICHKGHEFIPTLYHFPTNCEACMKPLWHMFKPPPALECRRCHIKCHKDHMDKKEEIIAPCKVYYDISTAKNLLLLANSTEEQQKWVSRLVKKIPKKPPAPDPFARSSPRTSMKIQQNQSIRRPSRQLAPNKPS

The first test addresses T1, Rho kinase (ROCK II) (Homo sapiens, UniProt O75116).
T1 construct: purchased Molecular Devices, Sunnyvale, Calif
The test can be described thus: IMAP fluorescence polarization Rho kinase assay (IMAP ROCK II kit). Type of test: biochemical. Conditions: mean ± SEM; 10 μM ATP, substrate 200 nM, 60 min at 23° C.; read-out: Rho Kinase Inhibition Constants (IC50), IMAP Fluorescence Polarization-Based Assay. How it is done: (§1) Rho kinase activity and inhibition of activity by test compounds in vitro is carried out using a radioactive assay or a fluorescence polarization assay as described herein.
The fluorescence polarization assays are performed using a Biomek 2000 Robotic Workstation (Beckman Instruments, Palo Alto, Calif.) in a 96-well plate format. The assay is performed utilizing the IMAP ROCK II kit (Molecular Devices, Sunnyvale, Calif.) as follows. […] The substrate, enzyme, and ATP dilutions are made with the reaction buffer provided by the vendor. Test compounds are diluted in 10:10 DMSO-ethanol (vol/vol). For the actual assay, the various components are added into black, clear bottom, 96-well plates (Costar, Corning, N.Y.) in a final volume of 20 μl per well. After the enzyme reaction (60 min at 23° C.), 60 μl of the binding solution (IMAP kit provided by vendor) is added per well and incubated for an additional 30 minutes in the dark at 23° C. Fluorescence polarization of the reaction mixtures is then measured on the Analyst™ HT instrument (Molecular Devices, Sunnyvale, Calif.). The data are then analyzed using a non-linear, iterative, sigmoidal-fit computer program purchased from IDBS (Emeryville, Calif.) and as previously described (Sharif et al., ibid.) to generate the inhibition constants for the test compounds.
Background: In fluorescence polarisation assays a small probe gives low polarisation when free and higher when bound to something large.
A word on the IC50: it is the concentration that gives 50% inhibition. In the case of `CC1CNCCN1S(=O)(=O)c1cccc2cnccc12` (centres unmarked) [B, reference compound], the IC50 is 913 ± 644 nM.

Turning to `Cc1cncc2cccc(S(=O)(=O)N3CCCN(C)C(C)C3)c12` (centres unmarked) [D], the IC50 turned out to be 270 ± 113 nM.

On to `Cc1cncc2cccc(S(=O)(=O)N3CCCN(C)CC3C)c12` (centres unmarked) [E], for which the IC50 stood at 108 ± 53 nM.

Consider `Cc1cncc2cccc(S(=O)(=O)N3CCCNC(C)(C)C3)c12` [F], for which the IC50 was determined as 2010 ± 85 nM.

`Cc1cncc2cccc(S(=O)(=O)N3CCNC(C)C3)c12` (centres unmarked) [G]: the IC50 came to 2390 ± 1260 nM.

In the next test the target is T2, Human recombinant Rho kinase (ROKα/ROCK-II, aa 11-552) (Homo sapiens, UniProt O75116).
T2 construct: ROKα/ROCK-II, (aa 11-552), human active, catalog #14-451; purchased Upstate Biotechnology Co., Lake Placid, N.Y. 14-451
T2 sequence (O75116 11-552): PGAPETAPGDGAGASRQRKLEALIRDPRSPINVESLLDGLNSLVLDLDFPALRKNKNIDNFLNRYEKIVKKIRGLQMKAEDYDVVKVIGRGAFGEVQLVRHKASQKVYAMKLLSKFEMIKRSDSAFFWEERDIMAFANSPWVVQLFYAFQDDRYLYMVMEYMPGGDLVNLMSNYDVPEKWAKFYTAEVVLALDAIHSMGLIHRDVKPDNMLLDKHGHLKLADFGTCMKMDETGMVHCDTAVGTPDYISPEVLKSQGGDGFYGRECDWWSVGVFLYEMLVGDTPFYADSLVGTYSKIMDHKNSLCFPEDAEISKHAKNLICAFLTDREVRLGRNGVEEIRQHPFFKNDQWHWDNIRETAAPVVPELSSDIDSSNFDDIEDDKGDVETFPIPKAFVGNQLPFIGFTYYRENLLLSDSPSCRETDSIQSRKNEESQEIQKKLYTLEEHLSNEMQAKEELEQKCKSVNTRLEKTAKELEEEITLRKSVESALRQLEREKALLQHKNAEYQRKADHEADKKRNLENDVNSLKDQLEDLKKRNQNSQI
The test can be described thus: [γ-33P]-ATP-based Rho kinase assay. Type of test: biochemical. Conditions: mean ± SEM; 100 μM ATP, Long S6 substrate peptide 30 μM, 30 min at 30° C.; read-out: Rho Kinase Inhibition Constants (IC50), [γ-33P]-ATP-Based Assay. How it is done: as §1
The enzyme assays are performed using a Biomek 2000 Robotic Workstation (Beckman Instruments, Palo Alto, Calif.) in a 96-well format using [γ-^33P]-ATP (Perkin-Elmer Life Sciences, Boston, Mass.). Stock [γ-^33P] ATP (3000 Ci/mmol) is diluted to 1 μCi/μl with the MgCl2/ATP cocktail solution. The concentrations of MgCl2/ATP used are 15 mM and 100 μM, respectively. […] The substrate and enzyme are diluted in 20 mM MOPS buffer (pH 7.2), 25 mM β-glycerol phosphate, 5 mM EGTA, 1.0 mM sodium orthovanadate, and 1.0 mM DTT. Test compound dilutions are made in 10:10 dimethyl sulfoxide-ethanol (vol/vol). In the following order, substrate, enzyme, test compound dilution, and [γ-33P]-ATP are added to the 96-well plates for a final volume of 100 μl per well. […] The radioactivity captured on the filter mats is then determined on a beta-counter.
As to `CC1CNCCN1S(=O)(=O)c1cccc2cnccc12` (centres unmarked) [B, reference compound], the IC50 came out at 2340 ± 395 nM.

`Cc1cncc2cccc(S(=O)(=O)N3CCCN(C)C(C)C3)c12` (centres unmarked) [D]: the IC50 came to 3460 ± 1800 nM.

On to `Cc1cncc2cccc(S(=O)(=O)N3CCCN(C)CC3C)c12` (centres unmarked) [E], for which the IC50 is 485 ± 207 nM.

In the case of `Cc1cncc2cccc(S(=O)(=O)N3CCCNC(C)(C)C3)c12` [F], the IC50 was determined as 1510 ± 704 nM.

Turning to `Cc1cncc2cccc(S(=O)(=O)N3CCNC(C)C3)c12` (centres unmarked) [G], the IC50 is 2630 ± 307 nM.

As for `CC1CN(S(=O)(=O)c2cccc3cnccc23)CCN1` (centres unmarked) [I, reference compound], the IC50 was 6700 ± 900 nM.
